# Source: patent publication US20020076412A1, “METHODS FOR MODULATING THE IMMUNE SYSTEM” (priority 1987, published 2002)
# Values joined by “and” are separate entries in the source; they are usually repeats but may differ in a detail not shown here. Identical values can stand only once. “Also recorded” adds a separate entry of the source.
# Experiments:
# MS patients = conditions: cited from earlier work
# CTL = CTL assay with substituted peptides; format: cell-based
# I-E = assay: MHC I-E binding of substituted MBP 87-99 peptides; design: species or system rat; conditions: for IC50: read-out: (M*C) IC50 I-E Binding
# From the text: A set of substituted peptides based on the sequence VHFFKNIVTPRT (Seq. ID No. 39), which is identical in rats, mice and human myelin basic protein (MBP), and corresponds to the I-E restricted epitope MBP 87-99 in the rat was produced. The peptides are shown in Table 1 (Seq. ID Nos. 39 to 52 respectively) MHC binding was measure say described in Smilek et al, 1991, Gautam et al 1992a&b.
# EAE (RAT) [1] = assay: Ability of peptide mixed in CFA to cause EAE; format: in vivo; conditions: rats with EAE / rats immunized with the peptide alone in CFA
# Protocol: (§1) The peptides were tested for their ability to cause EAE when mixed in CFA. […] It was seen that Ala4, Ala6, Ala7, and Ala8 are poor binders to I-E, implying that these residues 4F,6N,7I, and 8V are critical in MHC binding. […] Despite their inability to bind well to I-E, peptides ala6 and ala8 block the development of EAE when mixed with native peptide in a 5:1 molar ratio with CFA (0/6 sick with native plus ala6, 2/6 with native plus ala8, compared to 11/12 with native peptide alone). These competitor peptides Ala6 and Ala8, though poor I-E binders can apparently compete with native peptide and antagonize the T-cell receptor.
# EAE (RAT) [2] = assay: Prevention of EAE, competitor mixed with native peptide 5:1 in CFA; format: in vivo; conditions: sick/total; competitor plus native peptide 5:1 molar ratio in CFA; native line = native peptide alone
# Protocol: as §1
# 87-99 T-cell line [3] = assay: Proliferation of encephalitogenic T-cell line raised against native peptide (87-99); format: cell-based, rat; conditions: stimulation of T-cell line raised against native 87-99; grades negative to 4+, key not given
# Protocol: As noted above, candidate peptide analogues are first tested for their property of causing or inhibiting proliferation of T-cell lines. In the proliferation assay, MBP reactive T-cell lines may be used as target cells. T-cell lines are established from lymph nodes taken from rats injected with MBP. Lymph node cells are isolated and cultured for 5 to 8 days with MBP and IL-2 as a source of T-cell growth factors. Viable cells are recovered and a second round of stimulation is performed with MBP and irradiated splenocytes as a source of growth factors. After 5 to 6 passages in this manner, the proliferative potential of the cell lines are determined. MBP-reactive lines are used in the proliferation assay. In this assay, T-cell lines are cultured for three days with various concentrations of peptide analogues and irradiated, autologous splenocytes. After three days, 0.5-1.0 μCi of [^3H]-thymidine is added for 12-16 hours. Cultures are harvested and incorporated counts determined. Mean CPM and standard error of the mean are calculated from triplicate cultures.
# Development of MBP-specific T-cell lines in the rat: T-cell lines are selected from LN or SC (spinal cords) of rats immunized with guinea pig myelin basic protein or with MBP peptide (200 μg) in CFA. Supernatants from ConA-stimulated Lewis rat splenocytes are used as the source of IL-2 to expand Ag-stimulated T-cells.
# (§2) Proliferation Assay: Proliferative responses were determined as described previously (Zamvil, et al., Nature 317:355, 1985). 1×10^4 T-cells were cultured with 5×10^5 X-irradiated (3,000 rad) PL/J splenic APC in 0.2 ml of culture media in 96 well flat-bottomed microtiter plates (Falcon, 3072). Peptides were added to culture giving the final concentrations indicated. At 48 hours incubation, each well was pulsed with 1 μCi ^3H-thymidine and harvested 16 hours later. The mean c.p.m. thymidine incorporation was calculated for triplicate cultures. Standard deviations from replicate cultures were within 10% mean value. Proliferation assays were performed in 96-well microtiter plates. Briefly, 2×10^4 T-cells and 10^6 irradiated thymocytes/well were incubated with stimulation medium only, Con A, or antigen. The cultures were harvested onto glass fiber filters and TdR uptake was assessed by liquid scintillation. Mean cpm were calculated from triplicate wells. In some experiments, competitor peptides, or anti I-A (OX-6) or anti-I-E antibodies (OX-17) were used to evaluate which MHC molecules were used to restrict the T-cell response, or to determine whether peptides could antagonize stimulation by the native peptide.
# 87-99 T-cell line [4] = assay: Competition assay for T-cell proliferation with native peptide; format: cell-based, Lewis rat; conditions: blocking of proliferation of 87-99 T-cell line when given with native peptide in vitro
# Protocol: The second assay is a competition assay for T-cell proliferation. In this assay, antigen presenting spleen cells are first irradiated and then incubated with native MBP peptide for 2-4 hours. These cells are then washed and further cultured with T-cells reactive to MBP. Various concentrations of candidate peptide analogues are included in cultures for an additional 3 days. Following this incubation period, each culture is pulsed with 1 μCi of [^3H]-thymidine for an additional 12-18 hours. Cultures are then harvested on fiberglass filters and counted as above. Mean CPM and standard error of the mean are calculated from data determined in triplicate cultures. Peptide analogues which inhibit proliferation to approximately 25% at a concentration of 50 μM or greater are suitable for further screening.
# as §2, §1
# EAE = assay: Competition with Ala6 and Ala5 for prevention of EAE with MBP (Table 3); format: in vivo, mice
# Protocol: Incidence of EAE was expressed as number of mice with clinical EAE/number of mice immunized. For the induction of EAE, MBP peptide was dissolved in phosphate buffered saline (PBS) and emulsified with complete Freund's adjuvant (CFA) in a 1:1 mixture of PBS and CFA. Mice were injected with 0.2 ml emulsion at the base of the tail. On the same day and 48 h later, pertussis toxin (List Chemicals, Campbell, Calif.) was injected intravenously. Mice were examined daily for signs of EAE. For prevention of EAE, animals were immunized with MBP (0.2 mg), or in a mixture with the competitor peptide (1 mg).
molecule,measurement,setting,value
IFN-γ: cytokine administered in a pilot study to alleviate symptoms of MS,specific response to MBP,MS patients; in vivo,increase
CC(C)[C@H](N)C(=O)N[C@@H](Cc1c[nH]cn1)C(=O)N[C@@H](Cc1ccccc1)C(=O)N[C@@H](Cc1ccccc1)C(=O)N[C@@H](CCCCN)C(=O)N[C@@H](CC(N)=O)C(=O)N[C@@H](C)C(=O)N[C@H](C(=O)N[C@H](C(=O)N1CCC[C@H]1C(=O)N[C@@H](CCCNC(=N)N)C(=O)N[C@H](C(=O)N1CCC[C@H]1C(=O)O)[C@@H](C)O)[C@@H](C)O)C(C)C [Ala 7],CTL,CTL,plus
same,binding to I-E / MHC (in words),I-E,poor binders
same,IC50,I-E,> 200 µM
same,EAE (RAT),EAE (RAT) [1],6/6
CC[C@H](C)[C@H](NC(=O)[C@H](CC(N)=O)NC(=O)[C@H](CCCCN)NC(=O)[C@H](Cc1ccccc1)NC(=O)[C@H](Cc1ccccc1)NC(=O)[C@H](Cc1c[nH]cn1)NC(=O)[C@@H](N)C(C)C)C(=O)N[C@@H](C)C(=O)N[C@H](C(=O)N1CCC[C@H]1C(=O)N[C@@H](CCCNC(=N)N)C(=O)N[C@H](C(=O)N1CCC[C@H]1C(=O)O)[C@@H](C)O)[C@@H](C)O [Ala 8],CTL,CTL,plus
same,EAE (RAT),EAE (RAT) [2],2/6
same,Prolif.,87-99 T-cell line [3],weakly stimulate
same,Comp Assay Prolif (RAT),87-99 T-cell line [4],plus
same,Comp Assay Prolif (RAT),87-99 T-cell line [4]; listed as Ala8,can block proliferation
same,binding to I-E / MHC (in words),I-E,poor binders
same,IC50,I-E,> 200 µM
same,EAE (RAT),EAE (RAT) [1],1/15
same,EAE (RAT),EAE (RAT) [1]; listed as Ala8,incapable of causing EAE
"CC[C@H](C)[C@H](NC(=O)[C@H](CC(N)=O)NC(=O)[C@H](CCCCN)NC(=O)[C@H](Cc1ccccc1)NC(=O)[C@H](Cc1ccccc1)NC(=O)[C@H](Cc1c[nH]cn1)NC(=O)[C@@H](N)C(C)C)C(=O)N[C@H](C(=O)N[C@H](C(=O)N1CCC[C@H]1C(=O)N[C@@H](CCCNC(=N)N)C(=O)N[C@H](C(=O)N1CCC[C@H]1C(=O)O)[C@@H](C)O)[C@@H](C)O)C(C)C [native, reference compound]",CTL,CTL,nega-
same,EAE (RAT),EAE (RAT) [2],11/12
same,Incidence of EAE,"EAE; peptide alone 0.2 mg in CFA, number with clinical EAE/number immunized, listed as Native MBP Peptide",11/12 and 6/6
same,Comp Assay Prolif (RAT),87-99 T-cell line [4],MINUS
same,IC50,I-E,14 µM
same,EAE (RAT),EAE (RAT) [1],21/21
CC[C@H](C)[C@H](NC(=O)[C@H](C)NC(=O)[C@H](CCCCN)NC(=O)[C@H](Cc1ccccc1)NC(=O)[C@H](Cc1ccccc1)NC(=O)[C@H](Cc1c[nH]cn1)NC(=O)[C@@H](N)C(C)C)C(=O)N[C@H](C(=O)N[C@H](C(=O)N1CCC[C@H]1C(=O)N[C@@H](CCCNC(=N)N)C(=O)N[C@H](C(=O)N1CCC[C@H]1C(=O)O)[C@@H](C)O)[C@@H](C)O)C(C)C [Ala 6],EAE (RAT),EAE (RAT) [2],0/6
same,Prolif.,87-99 T-cell line [3],weakly stimulate
same,Incidence of EAE,EAE; native MBP peptide 0.2 mg mixed with competitor peptide 1 mg,completely prevented the clinical development of EAE
same,Incidence of EAE,"EAE; native MBP peptide 0.2 mg mixed with competitor peptide 1 mg, listed as ala 6",0/6
same,Incidence of EAE,"EAE; peptide alone 0.2 mg in CFA, number with clinical EAE/number immunized",0/6
same,Comp Assay Prolif (RAT),87-99 T-cell line [4],plus
same,Comp Assay Prolif (RAT),87-99 T-cell line [4]; listed as Ala6,can block proliferation
same,binding to I-E / MHC (in words),I-E,poor binders; also recorded: poor MHC binder
same,IC50,I-E,> 200 µM
same,EAE (RAT),EAE (RAT) [1],0/21
same,EAE (RAT),EAE (RAT) [1]; listed as Ala6,incapable of causing EAE
"IFN-γ: cytokine administered in a pilot study to alleviate symptoms of MS (protein, UniProt P01579 24-161, looked up) Interferon gamma: QDPYVKEAENLKKYFNAGHSDVADNGTLFLGILKNWKEESDRKIMQSQIVSFYFKLFKNFKDDQSIQKSVETIKEDMNVKFFNSNKKKRDDFEKLTNYSVTDLNVQRKAIHELIQVMAELSPAAKTGKRKRSQMLFRG",patients with clinical exacerbation,MS patients; within one month after initiation of treatment,7 of 18
